Data from patent US20130303509A1, “NAMPT INHIBITORS” (AbbVie Inc., priority 2012, published 2013).

Test system: PC3 cells
Experiment: NAMPT Cell Proliferation Assay
Assay type: cell-based
Conditions: Homo sapiens, PC-3, 120 h, 5 days incubation, cell viability by Cell Titer Glo
Method in brief: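 Seeded at 500 cells/well in RPMI with 10% heat-inactivated FBS and left to attach overnight at 37° C, 5% CO2. Compounds were added as 10-fold dilutions […] for 5 days, then viability was read by CellTiter-Glo. IC50s came from sigmoidal fits of percent inhibition.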

Row | Compound | IC50 [nM]
1 | Cn1cccc1C(=O)N1CCC(c2ccc(NC(=O)C3CN(c4cccnc4)C3)cc2)CC1 [Example 128, N-(4-{1-[(1-methyl-1H-pyrrol-2-yl)carbonyl]piperidin-4-yl}phenyl)-1-(pyridin-3-yl)azetidine-3-carboxamide] | 0.16
2 | O=C(Nc1ccc(OC2CCN(C(=O)c3cccc(F)c3)CC2)cc1)[C@H]1CCN(c2cccnn2)C1 [Example 798, (3S)-N-(4-{[1-(3-fluorobenzoyl)piperidin-4-yl]oxy}phenyl)-1-(pyridazin-3-yl)pyrrolidine-3-carboxamide] | 66.4
3 | O=C(Nc1ccc(C2CCN(C(=O)c3ccc(F)cc3F)CC2)cc1)C1CN(c2ccnnc2)C1 [Example 547, N-{4-[1-(2,4-difluorobenzoyl)piperidin-4-yl]phenyl}-1-(pyridazin-4-yl)azetidine-3-carboxamide] | 3.02
4 | O=C(Nc1ccc(C2(O)CCN(C(=O)OCc3ccccc3)CC2)cc1)C1CN(c2ccc(Cl)nn2)C1 [Example 854, benzyl 4-[4-({[1-(6-chloropyridazin-3-yl)azetidin-3-yl]carbonyl}amino)phenyl]-4-hydroxypiperidine-1-carboxylate] | > 10000
5 | O=C(Nc1ccc(C2CCN(C(=O)Cc3cccc(Cl)c3)CC2)cc1)[C@H]1CCN(c2cccnn2)C1 [Example 657, (3S)-N-(4-{1-[(3-chlorophenyl)acetyl]piperidin-4-yl}phenyl)-1-(pyridazin-3-yl)pyrrolidine-3-carboxamide] | 8.44
6 | O=C(Nc1ccc(O[C@@H]2CCN(C(=O)CC3CC3)C2)cc1)C1CN(c2cccnn2)C1 [Example 485, N-(4-{[(3R)-1-(cyclopropylacetyl)pyrrolidin-3-yl]oxy}phenyl)-1-(pyridazin-3-yl)azetidine-3-carboxamide] | 6.35
7 | O=C(Nc1ccc(OC2CCN(C(=O)CC3CC3)CC2)cc1)C1CN(c2cccnn2)C1 [Example 233, N-(4-{[1-(cyclopropylacetyl)piperidin-4-yl]oxy}phenyl)-1-(pyridazin-3-yl)azetidine-3-carboxamide] | 8.73
8 | O=C(Nc1ccc(O[C@@H]2CCN(C(=O)CCC(F)(F)F)C2)cc1)[C@H]1CCN(c2cccnn2)C1 [Example 782, (3S)-1-(pyridazin-3-yl)-N-(4-{[(3R)-1-(4,4,4-trifluorobutanoyl)pyrrolidin-3-yl]oxy}phenyl)pyrrolidine-3-carboxamide] | 66.9
9 | Cc1ncccc1N1CC(C(=O)Nc2ccc(C3CCN(C(=O)CCN4CCOCC4)CC3)cc2)C1 [Example 184, 1-(2-methylpyridin-3-yl)-N-(4-{1-[3-(morpholin-4-yl)propanoyl]piperidin-4-yl}phenyl)azetidine-3-carboxamide] | 604
10 | O=C(Nc1ccc(OC2CCN(C(=O)c3ccco3)CC2)cc1)C1CN(c2cccnc2)C1 [Example 63, N-(4-{[1-(furan-2-ylcarbonyl)piperidin-4-yl]oxy}phenyl)-1-(pyridin-3-yl)azetidine-3-carboxamide] | 6.35
11 | O=C(Nc1ccc(C2CCN(C(=O)c3cccs3)CC2)cc1)C1CN(c2ccnnc2)C1 [Example 549, 1-(pyridazin-4-yl)-N-{4-[1-(thiophen-2-ylcarbonyl)piperidin-4-yl]phenyl}azetidine-3-carboxamide] | 0.67
12 | CCCC(=O)N1CCC(Oc2ccc(NC(=O)C3CN(c4cccnc4)C3)cc2)CC1 [Example 43, N-{4-[(1-butanoylpiperidin-4-yl)oxy]phenyl}-1-(pyridin-3-yl)azetidine-3-carboxamide] | 6.88
13 | CC(C)Cn1cc(-c2ccc(C(=O)N[C@@H]3CCN(c4cnnc(Cl)c4Cl)C3)s2)cn1 [Example 618, N-[(3R)-1-(5,6-dichloropyridazin-4-yl)pyrrolidin-3-yl]-5-[1-(2-methylpropyl)-1H-pyrazol-4-yl]thiophene-2-carboxamide] | > 10000
14 | CC(C)(O)C(=O)N1CC(Oc2ccc(NC(=O)C3CN(c4ccnnc4)C3)cc2)C1 [Example 207, N-(4-{[1-(2-hydroxy-2-methylpropanoyl)azetidin-3-yl]oxy}phenyl)-1-(pyridazin-4-yl)azetidine-3-carboxamide] | 671
15 | O=C(Nc1ccc(C2CCN(C(=O)c3ccco3)CC2)cc1)C1CN(c2cccnn2)C1 [Example 436, N-{4-[1-(furan-2-ylcarbonyl)piperidin-4-yl]phenyl}-1-(pyridazin-3-yl)azetidine-3-carboxamide] | 0.67
16 | CC(C)c1ccc(C(=O)N2CCC(S(=O)(=O)c3ccc(NC(=O)C4CN(c5cccnn5)C4)cc3)CC2)cc1 [Example 572, N-[4-({1-[4-(propan-2-yl)benzoyl]piperidin-4-yl}sulfonyl)phenyl]-1-(pyridazin-3-yl)azetidine-3-carboxamide] | 59.8
17 | CC(C)CC(=O)N1CCC(c2ccc(NC(=O)[C@H]3CCN(c4cccnn4)C3)cc2)CC1 [Example 736, (3S)-N-{4-[1-(3-methylbutanoyl)piperidin-4-yl]phenyl}-1-(pyridazin-3-yl)pyrrolidine-3-carboxamide] | 8.09
18 | COc1ccccc1C(=O)N1CCC(c2ccc(NC(=O)[C@H]3CCN(c4cccnn4)C3)cc2)CC1 [Example 727, (3S)-N-{4-[1-(2-methoxybenzoyl)piperidin-4-yl]phenyl}-1-(pyridazin-3-yl)pyrrolidine-3-carboxamide] | 4.6
19 | O=C(Nc1ccc(OC2CN(C(=O)C3CCOC3)C2)cc1)C1CN(c2ccnnc2)C1 (centres unmarked) [Example 208, 1-(pyridazin-4-yl)-N-(4-{[1-(tetrahydrofuran-3-ylcarbonyl)azetidin-3-yl]oxy}phenyl)azetidine-3-carboxamide] | 593
20 | CCOCCC(=O)N1CCC(c2ccc(NC(=O)C3CN(c4cccnc4C)C3)cc2)CC1 [Example 175, N-{4-[1-(3-ethoxypropanoyl)piperidin-4-yl]phenyl}-1-(2-methylpyridin-3-yl)azetidine-3-carboxamide] | 683
21 | Cc1ncccc1N1CC(C(=O)Nc2ccc(C3CCN(C(=O)c4ccccc4)CC3)cc2)C1 [Example 149, N-[4-(1-benzoylpiperidin-4-yl)phenyl]-1-(2-methylpyridin-3-yl)azetidine-3-carboxamide] | 58
22 | CCC(=O)N1CCC(c2ccc(NC(=O)C3CN(c4cccnc4)C3)cc2)CC1 [Example 121, N-[4-(1-propanoylpiperidin-4-yl)phenyl]-1-(pyridin-3-yl)azetidine-3-carboxamide] | 0.62

More lines, in order of falling IC50, values ahead:

Row | IC50 [nM] | Compound
23 | 769 | Cc1ccc(N2CC[C@H](C(=O)Nc3ccc(OC4CCN(C(=O)c5ccccc5)CC4)cc3)C2)nn1 [Example 837, (3S)—N-{4-[(1-benzoylpiperidin-4-yl)oxy]phenyl}-1-(6-methylpyridazin-3-yl)pyrrolidine-3-carboxamide]
24 | 747 | O=C(NC1CN(c2cccnn2)C1)c1ccc(C2CCN(C(=O)CCC(F)(F)F)CC2)s1 [Example 855, N-[1-(pyridazin-3-yl)azetidin-3-yl]-5-[1-(4,4,4-trifluorobutanoyl)piperidin-4-yl]thiophene-2-carboxamide]
25 | 30 | CC(=O)N1CCC(c2ccc(NC(=O)[C@H]3CCN(c4cccnn4)C3)cc2)CC1 [Example 691, (3S)-N-[4-(1-acetylpiperidin-4-yl)phenyl]-1-(pyridazin-3-yl)pyrrolidine-3-carboxamide]
26 | 17.6 | O=C(Nc1ccc(C2CCN(C(=O)Cc3cccc(F)c3)CC2)cc1)[C@H]1CCN(c2cccnn2)C1 [Example 714, (3S)-N-(4-{1-[(3-fluorophenyl)acetyl]piperidin-4-yl}phenyl)-1-(pyridazin-3-yl)pyrrolidine-3-carboxamide]
27 | 7.92 | CCCCn1nc(C(C)(C)C)cc1-c1ccc(NC(=O)C2CN(c3cccnn3)C2)cc1 [Example 866, N-[4-(1-butyl-3-tert-butyl-1H-pyrazol-5-yl)phenyl]-1-(pyridazin-3-yl)azetidine-3-carboxamide]
28 | 7.87 | O=C(Nc1ccc(OC2CCN(C(=O)C3CC3)CC2)cc1)C1CN(c2cccnn2)C1 [Example 251, N-(4-{[1-(cyclopropylcarbonyl)piperidin-4-yl]oxy}phenyl)-1-(pyridazin-3-yl)azetidine-3-carboxamide]
29 | 7.26 | O=C(Nc1ccc(C2CCN(C(=O)CCCc3cccs3)CC2)cc1)[C@H]1CCN(c2cccnn2)C1 [Example 642, (3S)-1-(pyridazin-3-yl)-N-(4-{1-[4-(thiophen-2-yl)butanoyl]piperidin-4-yl}phenyl)pyrrolidine-3-carboxamide]
30 | 7.24 | O=C(Nc1ccc(C2CCN(C(=O)Cc3cc(F)cc(F)c3)CC2)cc1)C1CN(c2ccnnc2)C1 [Example 532, N-(4-{1-[(3,5-difluorophenyl)acetyl]piperidin-4-yl}phenyl)-1-(pyridazin-4-yl)azetidine-3-carboxamide]
31 | 5.77 | O=C(Nc1ccc(C2CCN(C(=O)CCC(F)(F)F)CC2)cc1)C1CN(c2cccnn2)C1 [Example 433, 1-(pyridazin-3-yl)-N-{4-[1-(4,4,4-trifluorobutanoyl)piperidin-4-yl]phenyl}azetidine-3-carboxamide]
32 | 4.2 | O=C(Nc1ccc(C2CCN(C(=O)C3CC3)CC2)cc1)C1CN(c2ccnnc2)C1 [Example 541, N-{4-[1-(cyclopropylcarbonyl)piperidin-4-yl]phenyl}-1-(pyridazin-4-yl)azetidine-3-carboxamide]
33 | 3.12 | CC(=O)N1CCC(c2ccc(NC(=O)C3CN(c4cccnn4)C3)cc2)CC1 [Example 316, N-[4-(1-acetylpiperidin-4-yl)phenyl]-1-(pyridazin-3-yl)azetidine-3-carboxamide]
34 | 2.4 | CC(C)(C)OC(=O)N1CCC(F)(c2ccc(NC(=O)C3CN(c4cccnn4)C3)cc2)CC1 [Example 809, tert-butyl 4-fluoro-4-[4-({[1-(pyridazin-3-yl)azetidin-3-yl]carbonyl}amino)phenyl]piperidine-1-carboxylate]
35 | 0.47 | CC(C)CC(=O)N1CC[C@@H](Oc2ccc(NC(=O)C3CN(c4cccnn4)C3)cc2)C1 [Example 520, N-(4-{[(3R)-1-(3-methylbutanoyl)pyrrolidin-3-yl]oxy}phenyl)-1-(pyridazin-3-yl)azetidine-3-carboxamide]
